# From patent publication US10076508B2, “Pharmaceutical compositions for inhibiting antibiotic-resistant microorganisms and uses thereof” (Peptide Cham Biotech Co., Ltd., priority 2015, dated 2018)
# Key:
# [1] = system: Mammalian cell line L292 and MEF cell lines; test: MTT assay cytotoxicity (survival analysis); type: cell-based, human; details: 100 μg/mL, 24 hours, 570 nm absorbance
# Procedure: Mammalian cell line L292 and MEF cell lines were cultured in Dulbecco's modified Eagle culture medium, wherein the culture medium was added with 100 μg/mL streptomycin, 100 U/mL penicillin and 10% (v/v) fetal bovine serum, and then the cell lines were cultured the in 5% CO2 containing humidified incubator under 37° C.
# MTT assay was used for investigating the cytotoxicity of compound on mammalian cells. The cells were cultured at 96-well tray with 100 μL culture medium for 24 hours after sterilization, then the cells were cultured in the diluted culture medium for 24 hours. 3-(4,5-dimethylthiazol-2yl)-2,5-diphenyltetrazolium bromide (MTT) was added into each well of 96-well tray and incubated for 4 hours. The cell suspension was removed and 100 μL dimethyl sulfoxide was added for dissolving all the precipitate. Enzyme immunoassay instrument was used for measure the 570 nm absorbance.
# human red blood cells = test: Hemolytic test; type: cell-based; details: at 100 μg/ml; human red blood cells 2% (V/V), 37° C., 1 hour, O.D. 490 nm
# Procedure: Fresh human red blood cells were washed by 0.9% physiological saline for three times, then were dissolved into 2% (V/V) physiological saline, and 50 μL red blood cells suspension and 50 μL of the compound (10, 50 and 100 μg/ml of antibiotic Fmoc-Ala-OPfp) and Triton X-100 was added into the 96-well tray, wherein the final concentration of red blood cells was 2% (V/V). The sample was slightly shaking in the incubator under 37° C. for 1 hour and centrifuged with 2000 g for 30 minutes. 50 μL sample suspension was dropped into a new 96-well tray and the O.D. 490 nm absorbance was measured. The physiological saline and Triton X-100 was negative control group and positive control group, respectively.
# Staphylococcus aureus = test: Antibiotics activity test (bacteria concentration OD630 over time); type: cell-based; details: 1 μg/ml Fmoc-Ala-OPfp in culture medium, 8 hours after bacterial inoculation, 37° C.; compared with ampicillin and vancomycin
# Procedure: The bacteria were cultured for antibiotics activity test. (FIG. 3) The cultured cells were added with specific concentration of Fmoc-Ala-OPfp, Ampicillin and Vancomycin as experimental group, and the cultured cells were not added with any drugs as control group, and the same amount of Staphylococcus aureus colonies were added then cultured in an incubator under 37° C. The different time of bacteria concentrations (OD630) were tested to investigate the antibiotic inhibitory effect of Fmoc-Ala-OPfp, Ampicillin and Vancomycin.
# Only a small amount (1 μg/ml) of Fmoc-Ala-OPfp was added in the culture medium.
smiles,measurement,setting,value
"C[C@H](NC(=O)OCC1c2ccccc2-c2ccccc21)C(=O)Oc1c(F)c(F)c(F)c(F)c1F [Fmoc-Ala-OPfp, N-(9-fluorenylmethoxycarbonyl)-L-alanine pentafluorophenyl]",cell toxicity on MTT assay,[1],10-20%
same,hemolytic activity,human red blood cells,low hemolytic activity
same,"antibiotic effect (inhibition of bacteria growth, OD630)",Staphylococcus aureus,equivalent to 5.3 μg/ml of ampicillin and 5.3 μg/ml vancomycin
